PMC1192819, “Molecular cloning and characterization of a nuclear androgen receptor activated by 11-ketotestosterone” (Reproductive biology and endocrinology : RB&E, 2005)

How the values were obtained:
[1] = test system: spiggin mRNA in adult female stickleback kidney; experiment: Induction of spiggin mRNA in stickleback kidney after steroid implants (slot blot); type: in vivo, three-spined stickleback (Gasterosteus aculeatus); settings: females
Experimental: The fish were anesthetized with 0.1% (v/v) 2-phenoxyethanol (Sigma, St. Louis, MO, USA) and implanted intraperitoneally with Silclear silicone tubing (10-mm length, 0.6-mm inner diameter, 1.2-mm outer diameter) containing steroids dissolved in cocoa butter. […] KA was used as this steroid is converted into KT by the fish. Tubes containing cocoa butter alone were used as controls. Following implantation the fish were maintained in 50-liter aquaria containing brackish water (0.5% salinity) at 20°C under LD 16:8 h. At sampling fish were decapitated and the kidneys were excised, frozen using liquid nitrogen, and stored at -70°C. A number of experiments were performed as follows. Spiggin mRNA was measured in post-breeding females that were dissected 2 days following implantation of tubes. Cytosolic androgen-receptors were measured in females and in castrated males. Males were castrated under anesthesia as above, by making a 1.5 mm long incision into the abdominal cavity on each side and removing the testes using forceps. The females and the castrated males were implanted with control and high dose tubes and dissected after 6 days. AR mRNA was studied in females implanted for 12 h, 2 and 16 days (separate experiments) with control and high dose tubes and in males castrated as above and implanted for 10 days with control tubes and high doses of KA or E2.
Total RNA was extracted using Tri Reagent™ (Sigma). Aliquots of 10 μg of total RNA were mixed with denaturing solution (6 × SSC, 7% (v/v) formaldehyde) and transferred onto a nylon membrane (Amersham Pharmacia Biotech) using a Minifold II Slot Blot Apparatus (Schleicher and Schuell, Keene, NH, USA). Membranes were probed using either a randomly primed [α-^32P]-dCTP radiolabelled AR cDNA fragment (918 base pairs) that was isolated by reverse transcriptase-polymerase chain reaction and sequenced as above, or a randomly primed [α-^32P]-dCTP radiolabelled spiggin-α cDNA. Hybridizations were performed at 65°C overnight (6 × SCC, 0.1% (w/v) SDS, 100 μg ml^-1 tRNA, and 5 × Denhardt's solution). The membranes were washed for 2 × 30 minutes at 42°C and 65°C in 0.1 × SCC, 0.1% (w/v) SDS whereafter Hyperfilm™-MP film was exposed at -70°C. The films were visualized using Curix 60 Film Developer. Following AR and spiggin mRNA determination the membranes were stripped and analyzed for 18S rRNA using a cDNA fragment as internal control. Each AR or spiggin transcript was then semi-quantified using Quantity ONE 4.2.3 (Bio-Rad, Laboratories, Inc, Hercules, CA, USA) in relation to its internal 18S transcript.

[2] = molecular target: T1, human AR (Homo sapiens, UniProt P10275); experiment: ARE-luciferase trans-activation assay, human AR in transfected ZFL cells; type: cell-based; settings: 10^-8 M of each steroid
T1 construct: expressed in transfected cells; host or cells: ZFL (zebrafish liver) cells
T1 sequence (P10275 1-920): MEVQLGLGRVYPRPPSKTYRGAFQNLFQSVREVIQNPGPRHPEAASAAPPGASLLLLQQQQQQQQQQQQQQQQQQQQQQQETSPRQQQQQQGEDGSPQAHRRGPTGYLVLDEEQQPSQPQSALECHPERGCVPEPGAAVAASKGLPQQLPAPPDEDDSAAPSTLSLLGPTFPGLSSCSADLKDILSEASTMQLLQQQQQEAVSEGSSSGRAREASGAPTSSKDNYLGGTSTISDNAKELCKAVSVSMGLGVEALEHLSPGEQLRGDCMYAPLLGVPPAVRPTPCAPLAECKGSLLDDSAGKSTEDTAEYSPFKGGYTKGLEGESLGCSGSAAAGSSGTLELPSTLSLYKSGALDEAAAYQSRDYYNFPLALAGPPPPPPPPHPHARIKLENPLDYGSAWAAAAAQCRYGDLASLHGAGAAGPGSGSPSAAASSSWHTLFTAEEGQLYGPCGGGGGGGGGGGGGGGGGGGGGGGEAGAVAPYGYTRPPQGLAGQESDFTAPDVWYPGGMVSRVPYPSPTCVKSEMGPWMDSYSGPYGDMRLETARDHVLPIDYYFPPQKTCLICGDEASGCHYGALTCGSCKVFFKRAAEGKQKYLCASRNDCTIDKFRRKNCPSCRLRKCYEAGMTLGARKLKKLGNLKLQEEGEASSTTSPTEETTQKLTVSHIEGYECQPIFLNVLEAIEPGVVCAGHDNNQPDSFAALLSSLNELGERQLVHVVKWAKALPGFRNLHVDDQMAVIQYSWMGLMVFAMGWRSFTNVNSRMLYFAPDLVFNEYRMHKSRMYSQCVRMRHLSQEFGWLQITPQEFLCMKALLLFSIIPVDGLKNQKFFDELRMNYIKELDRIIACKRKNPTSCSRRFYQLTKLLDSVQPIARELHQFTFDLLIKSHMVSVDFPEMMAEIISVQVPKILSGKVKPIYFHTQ
Experimental: Two liver epithelial cell lines were used to test receptor activity. HepG2 cells (ATCC, Manassas, VA) were maintained in DMEM supplemented with 10% FCS and non-essential amino acids. ZFL cells (ATCC) were maintained in 50% L-15 Leibovitz, 15% H-12 Ham and 35% DMEM supplemented with 10% FCS (Gibco, Paisley, Scotland, UK) and 50 ng ml-1 EGF (Sigma). Cells were cultured at 37°C (HepG2) or 28°C (ZFL) in 5% CO2. The transfection experiments were initiated by replacing the tissue culture medium with fresh phenol-free medium supplemented with charcoal stripped FCS and the cells were seeded on 24-well plates. Transfections were performed at 90–95% confluence using 1,5 μl Lipofectamine 2000 (Invitrogen, Carlsbad, CA, USA) and 0,6 μg DNA per well. […]
After 16 h the transfection medium was replaced with fresh phenol-free medium, supplemented with charcoal stripped FCS, containing different steroid hormones. The cells were exposed to the hormones for 40 h and luciferase levels were detected using the Dual Luciferase Assay kit (Promega) in a TD 20/20 Luminometer (Turner Designs, Sunnyvale, CA). […]

C[C@]12CC(=O)[C@H]3[C@@H](CCC4=CC(=O)CC[C@@]43C)[C@@H]1CC[C@@H]2O [KT, 11-ketotestosterone]
potency in spiggin induction relative to DHT ([1]; 1 μg implant dose): 23 times
effectiveness at increasing kidney spiggin mRNA levels relative to T ([1]; 25 μg implant dose): 50 times
activation of human AR compared among androgens [2]: equally activated
